For this assay, the system named is 22Rv1 prostate cancer s.c. xenografts. Description: Antineoplastic efficacy on 22Rv1 prostate cancer xenograft model (tumor growth inhibition). The assay is classed as in vivo, mice. The conditions noted are these: for Tumor volume, V mean / TGI %: 22Rv1; for Tumor volume, V mean / TGI % / Tumor volume (individual tumors): 0.3 mg/kg i.p. x3; for TGI %: vs TGC; for Tumor volume (individual tumors): 22Rv1 s.c. xenograft, 0.3 mg/kg. From the text: The evaluation of antineoplastic Conjugate (I) efficacy on xenograft model of prostate cancer.
To study the drug efficacy the xenograft model was selected as a quite illustrative one for preclinical studies (Application of Prostate Cancer Models for Preclinical Study: Advantages and Limitations of Cell Lines, Patient-Derived Xenografts, and Three-Dimensional Culture of Patient-Derived Cells Takeshi Namekawa, Kazuhiro Kuniko Horie-Inoue, Satoshi Inoue Cells, 2019 January; 8(1), The criteria of antineoplastic activity were tumor growth inhibition (TGI) (Experimental assessment of antineoplastic agents in the USSR and USA/IEd. Ed. Sophyina Z. P., Syrkin A. B., Goldin F., Klein I.//J.: Medicine, 1980) in treated animals (Pon) compared with control (Pk), expressed as a percentage: […]
The treatment in all groups was started when tumor nodes were appeared.
Tumor growth was times at the end of study (Table 1).

This note sets out measurements from patent publication US12454527B2, “Conjugate monomethyl auristatin E to obtain a composition for treatment of prostate cancer” (priority 2019, dated 2025).

SMILES strings stand for the structures. Values joined by “and” are separate entries in the source; they are usually repeats but may differ in a detail not shown here. Equal entries are not always repeated. Starred links: 1 amine or outer side, 2 acyl side, 3 side chain; linkers in the order of their positions; H or OH if unused. Non-standard residues stand in square brackets, D forms with d. Residues, ends and D or L forms follow the SMILES beside them. ξ: configuration not given here. *: point of attachment. GluureaLys(ε-3-ClBenzyl) = O=C(O)CC[C@H](NC(=O)N[C@@H](CCCCN(Cc1cccc(Cl)c1)*)C(=O)O)C(=O)O; Dolaproine = CO[C@@H]([C@@H]1CCCN1)[C@@H](C)C(=O)O; Dil = CC[C@H](C)[C@H](NC)[C@@H](CC(=O)O)OC; X1 = O=C(CCCc1cn(CCCN[*:1])nn1)[*:2]; PABC = O=C(OCc1ccc(N[*:1])cc1)[*:2]; X2 = C[C@@H](N*)[C@@H](O)c1ccccc1; Cit = NC(=O)NCCC[C@H](N)C(=O)O; Suc = O=C(CCC(=O)[*:2])[*:1]; NMeV = CN[C@H](C(=O)O)C(C)C; ξV = CC(C)C(N)C(=O)O; Ahx = NCCCCCC(=O)O

As to `CC[C@H](C)[C@@H]([C@@H](CC(=O)N1CCC[C@H]1[C@H](OC)[C@@H](C)C(=O)N[C@H](C)[C@@H](O)c1ccccc1)OC)N(C)C(=O)[C@@H](NC(=O)[C@H](C(C)C)N(C)C(=O)OCc1ccc(NC(=O)[C@H](CCCNC(N)=O)NC(=O)C(NC(=O)CCCc2cn(CCCNC(=O)[C@H](Cc3ccc(O)cc3)NC(=O)[C@H](Cc3ccccc3)NC(=O)CCC(=O)NCCCCCC(=O)N(CCCC[C@H](NC(=O)N[C@@H](CCC(=O)O)C(=O)O)C(=O)O)Cc3cccc(Cl)c3)nn2)C(C)C)cc1)C(C)C` (stereo partly shown) [Conjugate (I)] ({GluureaLys(ε-3-ClBenzyl)-Ahx-Suc}-FY[X1][ξV][Cit][PABC][NMeV]V[Dil][Dolaproine]-X2), the “Tumor volume, V mean” value by setting is: (day 1) 28 mm^3; (day 4) 83 mm^3; (day 8) 341 mm^3. Moreover, the TGI % was 83% (day 1 after treatment completion), 85% (day 4) and 70% (day 8). Moreover, the “Tumor volume (individual tumors)” value is, setting by setting: (day 1 after treatment) 22 mm^3 and 17 mm^3 (2×) and 45 mm^3 and 14 mm^3 and 19 mm^3 and 30 mm^3 (2×) and 32 mm^3 and 31 mm^3 and 51 mm^3 and 34 mm^3 and 18 mm^3 and 40 mm^3; (day 4 after treatment) 72 mm^3 (2×) and 42 mm^3 and 75 mm^3 and 38 mm^3 and 78 mm^3 and 173 mm^3 and 63 mm^3 and 108 mm^3 and 115 mm^3 and 65 mm^3 and 74 mm^3 and 102 mm^3 and 81 mm^3; (day 8 after treatment) 346 mm^3 and 111 mm^3 and 369 mm^3 and 186 mm^3 and 463 mm^3 and 597 mm^3 and 570 mm^3 and 314 mm^3 and 853 mm^3 and 177 mm^3 and 247 mm^3 and 349 mm^3 and 94 mm^3 and 96 mm^3. Also, under “mouse, in vivo”, the “Dose achieving effective tumor growth inhibition (TGI)” value was “approximately 0.3 mg/kg”.
